For six molecules, Ki, Kd and Ka results are on record in ChEMBL document CHEMBL1125358, “Effect of conformational mobility and hydrogen-bonding interactions on the selectivity of some guanidinoaryl-substituted mechanism-based inhibitors of trypsin-like serine proteases” (J Med Chem, 1992).

Several values for one entry are separate records, joined by “and”; a condition that tells them apart may be missing. Identical values can stand only once.

The target in assay [1] is T1, Chymotrypsinogen A (Bos taurus, UniProt P00766). As to the kind of experiment: Compound was tested for its binding affinity against the enzyme alpha-chymotrypsin.
The target of assay [2] is T2, Serine protease 1 (Bos taurus, UniProt P00760).
T2 sequence (P00760 whole entry): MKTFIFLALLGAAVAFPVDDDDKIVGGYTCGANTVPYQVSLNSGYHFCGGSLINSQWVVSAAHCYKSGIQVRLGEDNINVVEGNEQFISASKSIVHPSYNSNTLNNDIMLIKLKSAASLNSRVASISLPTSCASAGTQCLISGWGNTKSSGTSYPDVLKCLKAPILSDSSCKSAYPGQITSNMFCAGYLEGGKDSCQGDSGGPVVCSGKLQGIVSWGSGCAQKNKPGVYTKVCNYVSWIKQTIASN
As to the kind of experiment: Compound was tested for its binding affinity against the enzyme trypsin.

Assay [3] concerns the target T3, Urokinase-type plasminogen activator (Homo sapiens, UniProt P00749). As to the kind of experiment: Compound was tested for the rate constant of deacylation against Urokinase-type plasminogen activator.
The target in assay [4] is T4, Trypsin II (Bos taurus) (UniProt Q29463).
T4 sequence (whole entry): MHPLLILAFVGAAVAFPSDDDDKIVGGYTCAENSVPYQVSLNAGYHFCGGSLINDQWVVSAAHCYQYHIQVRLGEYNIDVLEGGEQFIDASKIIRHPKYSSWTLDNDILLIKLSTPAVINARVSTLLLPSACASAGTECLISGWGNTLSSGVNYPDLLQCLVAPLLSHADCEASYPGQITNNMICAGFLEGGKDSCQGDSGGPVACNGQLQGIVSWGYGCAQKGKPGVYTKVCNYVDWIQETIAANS
As to the kind of experiment: Compound was tested for the rate constant of acylation against the enzyme trypsin.

The target of assay [5] is T2, Serine protease 1. As to the kind of experiment: Compound was tested for the rate constant of deacylation against the enzyme trypsin.
Assay [6] has as its target T1, Chymotrypsinogen A. As to the kind of experiment: Compound was tested for the rate constant of deacylation against alpha-chymotrypsin; kd was too fast to measure.
In assay [7] the target is T3, Urokinase-type plasminogen activator. As to the kind of experiment: Compound was tested for its binding affinity against the enzyme Urokinase-type plasminogen activator.
For assay [8], the target named is T5, Prothrombin (Homo sapiens, UniProt P00734). As to the kind of experiment: Compound was tested for its binding affinity against the enzyme thrombin.
The target in assay [9] is T5, Prothrombin. As to the kind of experiment: Compound was tested for the rate constant of deacylation against thrombin.
Assay [10] addresses Tissue-type plasminogen activator (Homo sapiens, UniProt P00750). As to the kind of experiment: Compound was tested for its binding affinity against the enzyme Tissue plasminogen activator.
Assay [11] concerns the target T6, Serine protease 1 (Bos taurus) (UniProt P00760).
T6 sequence (whole entry): T2 sequence (P00760 whole entry)

In assay [12] the target is T5, Prothrombin. As to the kind of experiment: Compound was tested for the rate constant of acylation against the enzyme thrombin.
For assay [13], the target named is T3, Urokinase-type plasminogen activator.
Description: Compound was tested for the rate constant of acylation against the enzyme Urokinase-type plasminogen activator
Assay [14] deals with T7, Plasminogen (Homo sapiens, UniProt P00747). As to the kind of experiment: Compound was tested for its binding affinity against the enzyme plasmin.
Assay [15] addresses T7, Plasminogen. As to the kind of experiment: Compound was tested for the rate constant of acylation against the enzyme plasmin.
Assay [16] deals with T3, Urokinase-type plasminogen activator. As to the kind of experiment: Compound was tested for the rate constant of deacylation against the enzyme Urokinase-type plasminogen activator.
For assay [17], the target named is T7, Plasminogen. As to the kind of experiment: Compound was tested for the rate constant for deacylation against plasmin; kd was too fast to measure.
The target in assay [18] is T3, Urokinase-type plasminogen activator. As to the kind of experiment: Compound was tested for the rate constant of deacylation against Urokinase-type plasminogen activator.
The target is the same in assay [19]. As to the kind of experiment: Compound was tested for the rate constant of deacylation against the enzyme Urokinase-type plasminogen activator; kd was too fast to measure.

T7 sequence (P00747 97-580 limits assumed): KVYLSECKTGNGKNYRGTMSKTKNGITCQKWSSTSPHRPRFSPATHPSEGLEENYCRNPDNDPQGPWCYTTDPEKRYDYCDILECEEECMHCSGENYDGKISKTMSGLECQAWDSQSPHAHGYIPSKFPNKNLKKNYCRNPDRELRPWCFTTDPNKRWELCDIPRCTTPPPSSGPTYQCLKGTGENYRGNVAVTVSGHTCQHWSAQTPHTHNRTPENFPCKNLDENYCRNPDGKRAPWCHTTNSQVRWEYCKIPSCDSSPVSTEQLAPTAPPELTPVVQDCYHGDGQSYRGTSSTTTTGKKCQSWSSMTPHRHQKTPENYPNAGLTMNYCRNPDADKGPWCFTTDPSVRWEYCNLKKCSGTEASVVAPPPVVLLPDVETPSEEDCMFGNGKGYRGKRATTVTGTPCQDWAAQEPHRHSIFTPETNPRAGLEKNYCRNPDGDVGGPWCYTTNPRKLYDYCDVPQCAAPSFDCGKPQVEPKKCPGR
T7 sequence (P00747 581-810 limits assumed): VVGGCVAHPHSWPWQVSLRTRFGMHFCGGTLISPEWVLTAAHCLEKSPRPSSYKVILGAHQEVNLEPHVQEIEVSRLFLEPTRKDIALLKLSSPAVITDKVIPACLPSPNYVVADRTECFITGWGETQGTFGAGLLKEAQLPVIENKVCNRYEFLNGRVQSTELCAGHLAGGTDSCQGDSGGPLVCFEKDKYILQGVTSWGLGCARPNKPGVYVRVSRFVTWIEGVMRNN
Tissue-type plasminogen activator, sequence (P00750 whole entry): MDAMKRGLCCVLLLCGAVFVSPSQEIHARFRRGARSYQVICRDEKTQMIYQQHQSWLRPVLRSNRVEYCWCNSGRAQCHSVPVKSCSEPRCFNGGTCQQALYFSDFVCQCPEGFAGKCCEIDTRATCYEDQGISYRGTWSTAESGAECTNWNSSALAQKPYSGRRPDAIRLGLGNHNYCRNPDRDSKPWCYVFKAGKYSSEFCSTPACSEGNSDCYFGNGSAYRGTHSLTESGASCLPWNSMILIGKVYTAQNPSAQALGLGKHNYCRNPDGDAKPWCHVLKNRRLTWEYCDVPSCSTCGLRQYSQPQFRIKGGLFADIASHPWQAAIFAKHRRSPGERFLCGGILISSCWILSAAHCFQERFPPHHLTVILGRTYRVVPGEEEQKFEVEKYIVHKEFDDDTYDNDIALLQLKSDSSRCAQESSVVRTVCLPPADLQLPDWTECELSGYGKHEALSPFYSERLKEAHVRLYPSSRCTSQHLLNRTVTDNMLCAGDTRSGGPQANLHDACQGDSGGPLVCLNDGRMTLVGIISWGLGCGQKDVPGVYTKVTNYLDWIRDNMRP

By Ki is commonly meant a measure of affinity in units of concentration, obtained from inhibition or displacement. The low end stands for a stronger hold on the target, the high end for a looser hold on the target. As to `C=C1CC(c2ccc(NC(=N)N)cc2)C(NC(=O)c2ccccc2)C(=O)O1` (centres undefined), the results for the Ki in assay [1] and in assay [2] were 460 nM and 10000 nM, respectively. The Kd was 3.3e-05 s⁻¹ in assay [3], 0.00025 s⁻¹ in assay [5] and “Fast” in assay [6]. This molecule also displayed a Ka in assay [4] of 10.2 min⁻¹.

Consider `C=C1CC(c2ccc(NC(=N)N)cc2)CC(=O)O1` (centres undefined), for which the Ki is 9400 nM in assay [2] and 120 nM in [7]. The Kd in [3] turned out to be 0.00015 s⁻¹; in [5], 3.3e-05 s⁻¹.

Consider `N=C(N)NCc1ccc(C2CC/C(=C/I)OC2=O)cc1` (centres undefined), for which the Ki in assay [2] stood at 80 nM; in assay [8], 14800 nM; in assay [10] it was 120 nM; in assay [14], 1190 nM. Moreover, the Kd in [9] stood at 0.000217 s⁻¹. The Ka in [11] is 18.4 min⁻¹; in [12], 27.2 min⁻¹; in assay [13], 7.56 min⁻¹; in [15] it was 10.2 min⁻¹.

As for `C=C1CCC(c2ccc(CNC(=N)N)cc2)C(=O)O1` (centres undefined), the Kd in assay [16] is 0.000733 s⁻¹; in [9], 0.0001 s⁻¹; in assay [17] it was “Fast”. The values for the inhibitory constant (Ki) in assay [8], in [7] and in assay [14] were 37900 nM, 350 nM and 466000 nM, respectively. For the same molecule, the Ka stood at 5.58 min⁻¹ in assay [12], 9.8 min⁻¹ in [13] and 57 min⁻¹ in assay [15].

As for `N=C(N)Nc1ccc(C2C/C(=C/I)OC(=O)C2NC(=O)c2ccccc2)cc1` (centres undefined), the Kd was found to be 1.33e-05 s⁻¹ in [16] and 1.3e-05 s⁻¹ in [18]. Further, the inhibition constant Ki is 170 nM in assay [1]; 670 nM and 2760 nM in [2]; 18700 nM in assay [7].

Consider `N=C(N)Nc1ccc(C2CC(=O)O/C(=C\I)C2)cc1` (centres undefined), for which the Ki in assay [2] is 4280 nM; in assay [7], 7830 nM. Further, the results for the Kd in [5] and in assay [19] were 0.00033 s⁻¹ and “Fast”, respectively. The results for the Ka in [11] and in [13] were 0.54 min⁻¹ and 2.61 min⁻¹, respectively.
